Laboratory results from ChEMBL document CHEMBL4831545, “Hormesis Effect of Berberine against Klebsiella pneumoniae Is Mediated by Up-Regulation of the Efflux Pump KmrA” (J Nat Prod, 2021).

Columns and labels:
Acinetobacter baumannii [1] = assay: Hormesis activity against overnight-compound treated Acinetobacter baumannii assessed as increase in antibiotic MIC by measuring hygromycinMIC at 3 ug/ml incubated for 12 hrs by OD600 based analysis (reference value: 125 ug/ml); type: ADME, organism-based; conditions: in vivo, dose 3 µg/ml
Acinetobacter baumannii [2] = assay: Hormesis activity against Acinetobacter baumannii assessed as increase in antibiotic MIC by measuring chloramphenicol MIC at 3 ug/ml incubated for 12 hrs by OD600 based analysis (reference value: 6.25 ug/ml); type: ADME, organism-based; conditions: in vivo, dose 3 µg/ml
[3] = Upregulation of KmrA promoter activity in Klebsiella pneumoniae assessed as increase in beta-galactosidase activity at 3 ug/ml by LacZ based OD600 analysis relative to control; type: ADME; conditions: dose 3 µg/ml
Klebsiella pneumoniae [4] = assay: Hormesis activity against overnight compound-treated Klebsiella pneumoniae assessed as increase in antibiotic MIC by measuring cefotaxime MIC at 3 ug/ml incubated for 12 hrs by OD600 based analysis (reference value: 0.39625 ug/ml); type: ADME, organism-based; conditions: in vivo, dose 3 µg/ml
Acinetobacter baumannii [5] = assay: Hormesis activity against Acinetobacter baumannii assessed as increase in antibiotic MIC by measuring hygromycinMIC at 3 ug/ml incubated for 12 hrs by OD600 based analysis (reference value: 125 ug/ml); type: ADME, organism-based; conditions: in vivo, dose 3 µg/ml
Acinetobacter baumannii [6] = assay: Hormesis activity against overnight-compound treated Acinetobacter baumannii assessed as increase in antibiotic MIC by measuring rifampicin MIC at 3 ug/ml incubated for 12 hrs by OD600 based analysis (reference value: 1.5625 ug/ml); type: ADME, organism-based; conditions: in vivo, dose 3 µg/ml
[7] = Upregulation of efflux pump regulator promoter activity in Klebsiella pneumoniae assessed as increase in beta-galactosidase activity at 3 to 50 ug/ml by LacZ based OD600 analysis; type: ADME; conditions: dose 3-50 µg/ml
[8] = Upregulation of efflux pump KmrA gene expression in Klebsiella pneumoniae at 3 ug/ml incubated for 12 hrs by transcriptome analysis; type: ADME; conditions: dose 3 µg/ml
Klebsiella pneumoniae [9] = assay: Hormesis activity against Klebsiella pneumoniae assessed as promotion of bacterial growth at 3 to 6 ug/ml measured for 24 hrs in presence of efflux pump inhibitor, CCCP and 1 to 2 ug/ml tetracycline by OD600 based analysis; type: ADME, organism-based; conditions: in vivo, dose 3-6 µg/ml
Enterobacter cloacae [10] = assay: Hormesis activity against Enterobacter cloacae assessed as increase in antibiotic MIC by measuring atreonamMIC at 3 ug/ml incubated for 12 hrs by OD600 based analysis (reference value: 3.125 ug/ml); type: ADME, organism-based; conditions: in vivo, dose 3 µg/ml
Klebsiella pneumoniae [11] = assay: Hormesis activity against Klebsiella pneumonia deficient in KmrA gene expression assessed as promotion of bacterial growth at 3 to 6 ug/ml measured for 24 hrs by OD600 based analysis; type: organism-based; conditions: in vivo, dose 3-6 µg/ml
Klebsiella pneumoniae [12] = assay: Hormesis activity against overnight compound-treated Klebsiella pneumoniae deficient in KmrA gene expression assessed as increase in antibiotic MIC by measuring meropenem MIC at 3 ug/ml incubated for 12 hrs by OD600 based analysis (reference value: 0.39625 ug/ml); type: ADME, organism-based; conditions: in vivo, dose 3 µg/ml
Klebsiella pneumoniae [13] = assay: Hormesis activity against Klebsiella pneumoniae assessed as increase in antibiotic MIC by measuring tetracycline MIC at 3 ug/ml incubated for 12 hrs by OD600 based analysis (reference value: 6 ug/ml); type: ADME, organism-based; conditions: in vivo, dose 3 µg/ml
Klebsiella pneumoniae [14] = assay: Hormesis activity against Klebsiella pneumoniae assessed as promotion of bacterial growth at 3 to 6 ug/ml measured for 24 hrs in presence of efflux pump inhibitor, CCCP by OD600 based analysis; type: ADME, organism-based; conditions: in vivo, dose 3-6 µg/ml
[15] = Upregulation of KmrA promoter activity in Klebsiella pneumoniae assessed as increase in beta-galactosidase activity at 6 to 50 ug/ml by LacZ based OD600 analysis; type: ADME; conditions: dose 6-50 µg/ml
Enterobacter cloacae [16] = assay: Hormesis activity against Enterobacter cloacae assessed as increase in antibiotic MIC by measuring hygromycinMIC at 3 ug/ml incubated for 12 hrs by OD600 based analysis (reference value: 25 ug/ml); type: ADME, organism-based; conditions: in vivo, dose 3 µg/ml
Acinetobacter baumannii [17] = assay: Hormesis activity against Acinetobacter baumannii assessed as increase in antibiotic MIC by measuring cefotaxime MIC at 3 ug/ml incubated for 12 hrs by OD600 based analysis (reference value: 12.5 ug/ml); type: ADME, organism-based; conditions: in vivo, dose 3 µg/ml
Klebsiella pneumoniae [18] = assay: Hormesis activity against overnight compound-treated Klebsiella pneumoniae assessed as increase in antibiotic MIC by measuring streptomycin MIC at 3 ug/ml incubated for 12 hrs by OD600 based analysis (reference value: 0.78125 ug/ml); type: ADME, organism-based; conditions: in vivo, dose 3 µg/ml
Enterobacter cloacae [19] = assay: Hormesis activity against Enterobacter cloacae assessed as increase in antibiotic MIC by measuring streptomycin MIC at 3 ug/ml incubated for 12 hrs by OD600 based analysis (reference value: 12.5 ug/ml); type: ADME, organism-based; conditions: in vivo, dose 3 µg/ml
Acinetobacter baumannii [20] = assay: Hormesis activity against overnight-compound treated Acinetobacter baumannii assessed as increase in antibiotic MIC by measuring meropenem MIC at 3 ug/ml incubated for 12 hrs by OD600 based analysis (reference value: 0.625 ug/ml); type: ADME, organism-based; conditions: in vivo, dose 3 µg/ml
Acinetobacter baumannii [21] = assay: Hormesis activity against overnight-compound treated Acinetobacter baumannii assessed as increase in antibiotic MIC by measuring chloramphenicol MIC at 3 ug/ml incubated for 12 hrs by OD600 based analysis (reference value: 6.25 ug/ml); type: ADME, organism-based; conditions: in vivo, dose 3 µg/ml
Enterobacter cloacae [22] = assay: Hormesis activity against Enterobacter cloacae assessed as increase in antibiotic MIC by measuring meropenem MIC at 3 ug/ml incubated for 12 hrs by OD600 based analysis (reference value: 0.1953 ug/ml); type: ADME, organism-based; conditions: in vivo, dose 3 µg/ml
Klebsiella pneumoniae [23] = assay: Hormesis activity against overnight compound-treated Klebsiella pneumoniae assessed as increase in antibiotic MIC by measuring chloramphenicol MIC at 3 ug/ml incubated for 12 hrs by OD600 based analysis (reference value: 6.25 ug/ml); type: ADME, organism-based; conditions: in vivo, dose 3 µg/ml
Klebsiella pneumoniae [24] = assay: Hormesis activity against overnight compound-treated Klebsiella pneumoniae assessed as increase in antibiotic MIC by measuring ampicillin MIC at 3 ug/ml incubated for 12 hrs by OD600 based analysis (reference value: 12.5 ug/ml); type: ADME, organism-based; conditions: in vivo, dose 3 µg/ml
Klebsiella pneumoniae [25] = assay: Hormesis activity against overnight compound-treated Klebsiella pneumoniae deficient in KmrA gene expression assessed as increase in antibiotic MIC by measuring chloramphenicol MIC at 3 ug/ml incubated for 12 hrs by OD600 based analysis (reference value: 6.25 ug/ml); type: ADME, organism-based; conditions: in vivo, dose 3 µg/ml
Acinetobacter baumannii [26] = assay: Hormesis activity against Acinetobacter baumannii assessed as increase in antibiotic MIC by measuring tetracycline MIC at 3 ug/ml incubated for 12 hrs by OD600 based analysis (reference value: 240 ug/ml); type: ADME, organism-based; conditions: in vivo, dose 3 µg/ml
Klebsiella pneumoniae [27] = assay: Hormesis activity against Klebsiella pneumonia assessed as promotion of bacterial growth by measuring prolonged logarithmic growth phase at 3 to 6 ug/ml measured from 840 to 1440 mins by OD600 based analysis; type: organism-based; conditions: in vivo, dose lower 3 µg/ml, time lower 840 min, dose upper 6 µg/ml, time upper 1440 min
[28] = Upregulation of efflux pump regulator gene expression in Klebsiella pneumoniae at 3 ug/ml incubated for 12 hrs by transcriptome analysis; type: ADME; conditions: dose 3 µg/ml
Enterobacter cloacae [29] = assay: Hormesis activity against overnight compound-treated Enterobacter cloacae assessed as increase in antibiotic MIC by measuring atreonamMIC at 3 ug/ml incubated for 12 hrs by OD600 based analysis (reference value: 3.125 ug/ml); type: ADME, organism-based; conditions: in vivo, dose 3 µg/ml
Enterobacter cloacae [30] = assay: Hormesis activity against Enterobacter cloacae assessed as increase in antibiotic MIC by measuring azithromycin MIC at 3 ug/ml incubated for 12 hrs by OD600 based analysis (reference value: 6.25 ug/ml); type: ADME, organism-based; conditions: in vivo, dose 3 µg/ml

COc1ccc2cc3[n+](cc2c1OC)CCc1cc2c(cc1-3)OCO2 [BERBERINE]
MIC (Acinetobacter baumannii [1]): 250 µg/mL | MIC (Acinetobacter baumannii [2]): 6.25 µg/mL | fold change (FC) [3]: 2.5 | MIC (Klebsiella pneumoniae [4]): 0.3962 µg/mL | MIC (Acinetobacter baumannii [5]): 250 µg/mL | MIC (Acinetobacter baumannii [6]): 6.25 µg/mL | Activity [7]: Toxic | Activity [8]: Toxic | Activity (Klebsiella pneumoniae [9]): Non-Toxic | MIC (Enterobacter cloacae [10]): 3.125 µg/mL | Activity (Klebsiella pneumoniae [11]): Non-Toxic | MIC (Klebsiella pneumoniae [12]): 0.3962 µg/mL | MIC (Klebsiella pneumoniae [13]): 6 µg/mL | Activity (Klebsiella pneumoniae [14]): Non-Toxic | Activity [15]: Toxic | MIC (Enterobacter cloacae [16]): 25 µg/mL | MIC (Acinetobacter baumannii [17]): 12.5 µg/mL | MIC (Klebsiella pneumoniae [18]): 3.125 µg/mL | MIC (Enterobacter cloacae [19]): 12.5 µg/mL | MIC (Acinetobacter baumannii [20]): 0.625 µg/mL | MIC (Acinetobacter baumannii [21]): 6.25 µg/mL | MIC (Enterobacter cloacae [22]): 0.1953 µg/mL | MIC (Klebsiella pneumoniae [23]): 6.25 µg/mL | MIC (Klebsiella pneumoniae [24]): 12.5 µg/mL | MIC (Klebsiella pneumoniae [25]): 6.25 µg/mL | MIC (Acinetobacter baumannii [26]): 240 µg/mL | Activity (Klebsiella pneumoniae [27]): Toxic | Activity [28]: Toxic | MIC (Enterobacter cloacae [29]): 3.125 µg/mL | MIC (Enterobacter cloacae [30]): 6.25 µg/mL
